Patent US11325940B2, “Certain chemical entities, compositions, and methods” (NeuPharma, Inc., priority 2012, dated 2022)
Where two headings read alike, the source gives them in different places.

Test system: A549 cells
Experiment: Inhibition of cancer cell growth, MTT assay
Format: cell-based
Conditions: Homo sapiens
Method: Inhibition of cell growth by compounds was measured using MTT assay (Mosmann, T., Journal of Immunological Methods, 1983, 65, 55-63). Tumor cell lines were purchased from ATCC (American Type Culture Collection, Manassas, Va.). All cell lines were maintained in RPMI 1640 (Hyclone) supplemented with 10% fetal bovine serum (FBS, Hyclone), glutamine (2 mM, Hyclone), and antibiotics (penicillin 100 U/mL and streptomycin 50 μg/mL) at 37° C. in a humidified atmosphere of 5% CO2 in air. Taxol (as a positive control, Sigma) and compounds were dissolved in DMSO (Sigma), and the final concentration of DMSO in the medium was 1%. Tumor cells were plated in 96-well plates at densities of about 4000 cells/well of a 96-well plate and allowed to adhere/grow for 24 h. They were then treated with various concentrations of drug for 72 h. 3-(4,5-Dimethylthiazol-2-yl)-2,5-diphenyltetrazolium bromide (MTT, Sigma) was used to determine the number of viable cells at the time of compound addition and the number of cells remaining after 72 h compound exposure. The number of cells remaining after 72 h was compared to the number of viable cells at the time of compound addition by measuring the absorbance at 570 nm, allowing for the calculation of growth inhibition.
All concentrations of compounds were tested in triplicate and controls were averaged over 4 wells. IC50 was calculated by plotting the concentration of compound vs the percentage of inhibition in treated wells using GraphPad Prism 5. […] The scale utilized in Table 3 is as follows: ++++ less than 20 nM; +++ between 20 nM and 100 nM; ++ between 100 nM and 1000 nM; and + greater than 1000 nM.

[1] = A549 cells, 72 h compound exposure, MTT, read-out: IC50

SMILES	IC50 [1] [nM]	IC50 (A549, 72 h) [nM]
C[C@]12CC[C@@H](NC(=O)N3CCOCC3)C[C@H]1CC[C@@H]1[C@@H]2CC[C@]2(C)[C@@H](c3ccc(=O)oc3)CC[C@]12O [Compound C01, N-((3R,5R,8R,9S,10S,13R,14S,17R)-14-hydroxy-10,13-dimethyl-17-(2-oxo-2H-pyran-5-yl)hexadecahydro-1H-cyclopenta[a]phenanthren-3-yl)morpholine-4-carboxamide]	100 to 1000	–
C[C@]12CC[C@@H](NC(=O)N3CCNCC3)C[C@H]1CC[C@@H]1[C@@H]2CC[C@]2(C)[C@@H](c3ccc(=O)oc3)CC[C@]12O [Compound C03, N-((3R,5R,8R,9S,10S,13R,14S,17R)-14-hydroxy-10,13-dimethyl-17-(2-oxo-2H-pyran-5-yl)hexadecahydro-1H-cyclopenta[a]phenanthren-3-yl)piperazine-1-carboxamide]	< 20	–
C[C@]12CC[C@@H](NC(=O)N3CCCC3)C[C@H]1CC[C@@H]1[C@@H]2CC[C@]2(C)[C@@H](c3ccc(=O)oc3)CC[C@]12O [Compound C05, N-((3R,5R,8R,9S,10S,13R,14S,17R)-14-hydroxy-10,13-dimethyl-17-(2-oxo-2H-pyran-5-yl)hexadecahydro-1H-cyclopenta[a]phenanthren-3-yl)pyrrolidine-1-carboxamide]	–	100 to 1000
C[C@]12CC[C@H](NC(=O)N3CCCC3)C[C@H]1CC[C@@H]1[C@@H]2CC[C@]2(C)[C@@H](c3ccc(=O)oc3)CC[C@]12O [Compound C06, N-((3S,5R,8R,9S,10S,13R,14S,17R)-14-hydroxy-10,13-dimethyl-17-(2-oxo-2H-pyran-5-yl)hexadecahydro-1H-cyclopenta[a]phenanthren-3-yl)pyrrolidine-1-carboxamide]	–	< 20
C[C@]12CC[C@@H](NC(=O)NCCO)C[C@H]1CC[C@@H]1[C@@H]2CC[C@]2(C)[C@@H](c3ccc(=O)oc3)CC[C@]12O [Compound C07, 1-((3R,5R,8R,9S,10S,13R,14S,17R)-14-hydroxy-10,13-dimethyl-17-(2-oxo-2H-pyran-5-yl)hexadecahydro-1H-cyclopenta[a]phenanthren-3-yl)-3-(2-hydroxyethyl)urea]	–	100 to 1000
C[C@]12CC[C@@H](NC(=O)NCCN)C[C@H]1CC[C@@H]1[C@@H]2CC[C@]2(C)[C@@H](c3ccc(=O)oc3)CC[C@]12O [Compound C08, 1-(2-aminoethyl)-3-((3R,5R,8R,9S,10S,13R,14S,17R)-14-hydroxy-10,13-dimethyl-17-(2-oxo-2H-pyran-5-yl)hexadecahydro-1H-cyclopenta[a]phenanthren-3-yl)urea]	100 to 1000	–
C[C@]12CC[C@H](NC(=O)NCCO)C[C@H]1CC[C@@H]1[C@@H]2CC[C@]2(C)[C@@H](c3ccc(=O)oc3)CC[C@]12O [Compound C09, 1-((3S,5R,8R,9S,10S,13R,14S,17R)-14-hydroxy-10,13-dimethyl-17-(2-oxo-2H-pyran-5-yl)hexadecahydro-1H-cyclopenta[a]phenanthren-3-yl)-3-(2-hydroxyethyl)urea]	–	20 to 100
C[C@]12CC[C@@H](NC(=O)CN)C[C@H]1CC[C@@H]1[C@@H]2CC[C@]2(C)[C@@H](c3ccc(=O)oc3)CC[C@]12O [Compound C11, 2-amino-N-((3R,5R,8R,9S,10S,13R,14S,17R)-14-hydroxy-10,13-dimethyl-17-(2-oxo-2H-pyran-5-yl)hexadecahydro-1H-cyclopenta[a]phenanthren-3-yl)acetamide]	20 to 100	–
C[C@]12CC[C@@H](NC(=O)[C@@H]3CCCN3)C[C@H]1CC[C@@H]1[C@@H]2CC[C@]2(C)[C@@H](c3ccc(=O)oc3)CC[C@]12O [Compound C13, (S)-N-((3R,5R,8R,9S,10S,13R,14S,17R)-14-hydroxy-10,13-dimethyl-17-(2-oxo-2H-pyran-5-yl)hexadecahydro-1H-cyclopenta[a]phenanthren-3-yl)pyrrolidine-2-carboxamide]	–	100 to 1000
C[C@]12CC[C@H](NC(=O)[C@@H]3CCCN3)C[C@H]1CC[C@@H]1[C@@H]2CC[C@]2(C)[C@@H](c3ccc(=O)oc3)CC[C@]12O [Compound C14, (S)-N-((3S,5R,8R,9S,10S,13R,14S,17R)-14-hydroxy-10,13-dimethyl-17-(2-oxo-2H-pyran-5-yl)hexadecahydro-1H-cyclopenta[a]phenanthren-3-yl)pyrrolidine-2-carboxamide]	–	< 20
C[C@]12CCC(N3CCNCC3)C[C@H]1CC[C@@H]1[C@@H]2CC[C@]2(C)[C@@H](c3ccc(=O)oc3)CC[C@]12O (stereo partly drawn) [Compound C15, 5-((5R,8R,9S,10S,13R,14S,17R)-14-hydroxy-10,13-dimethyl-3-(piperazin-1-yl)hexadecahydro-1H-cyclopenta[a]phenanthren-17-yl)-2H-pyran-2-one]	–	< 20
C[C@]12CC[C@H](NS(C)(=O)=O)C[C@H]1CC[C@@H]1[C@@H]2CC[C@]2(C)[C@@H](c3ccc(=O)oc3)CC[C@]12O [Compound C16, N-((3S,5R,8R,9S,10S,13R,14S,17R)-14-hydroxy-10,13-dimethyl-17-(2-oxo-2H-pyran-5-yl)hexadecahydro-1H-cyclopenta[a]phenanthren-3-yl)methanesulfonamide]	–	< 20
COC(=O)N[C@H]1CC[C@@]2(C)[C@H](CC[C@@H]3[C@@H]2CC[C@]2(C)[C@@H](c4ccc(=O)oc4)CC[C@]32O)C1 [Compound C17, methyl ((3S,5R,8R,9S,10S,13R,14S,17R)-14-hydroxy-10,13-dimethyl-17-(2-oxo-2H-pyran-5-yl)hexadecahydro-1H-cyclopenta[a]phenanthren-3-yl)carbamate]	–	< 20
COC(=O)N(C)C1CC[C@@]2(C)[C@H](CC[C@@H]3[C@@H]2CC[C@]2(C)[C@@H](c4ccc(=O)oc4)CC[C@]32O)C1 (stereo partly drawn) [Compound C21, methyl ((5R,8R,9S,10S,13R,14S,17R)-14-hydroxy-10,13-dimethyl-17-(2-oxo-2H-pyran-5-yl)hexadecahydro-1H-cyclopenta[a]phenanthren-3-yl)(methyl)carbamate]	–	< 20
CN(C(=O)N1CCOCC1)C1CC[C@@]2(C)[C@H](CC[C@@H]3[C@@H]2CC[C@]2(C)[C@@H](c4ccc(=O)oc4)CC[C@]32O)C1 (stereo partly drawn) [Compound C23, N-((5R,8R,9S,10S,13R,14S,17R)-14-hydroxy-10,13-dimethyl-17-(2-oxo-2H-pyran-5-yl)hexadecahydro-1H-cyclopenta[a]phenanthren-3-yl)-N-methylmorpholine-4-carboxamide]	–	100 to 1000
CC(C)[C@@H](N)C(=O)N[C@H]1CC[C@@]2(C)[C@H](CC[C@@H]3[C@@H]2CC[C@]2(C)[C@@H](c4ccc(=O)oc4)CC[C@]32O)C1 [Compound C25, (R)-2-amino-N-((3S,5R,8R,9S,10S,13R,14S,17R)-14-hydroxy-10,13-dimethyl-17-(2-oxo-2H-pyran-5-yl)hexadecahydro-1H-cyclopenta[a]phenanthren-3-yl)-3-methylbutanamide]	–	< 20
CC(C)[C@@H](N)C(=O)N[C@H]1CC[C@]2(C)[C@H]3CC[C@]4(C)[C@@H](c5ccc(=O)oc5)CC[C@]4(O)[C@@H]3CC[C@]2(O)C1 [Compound C29, (2R)-2-amino-N-((5S,8R,9S,10R,13R,14S,17R)-5,14-dihydroxy-10,13-dimethyl-17-(2-oxo-2H-pyran-5-yl)hexadecahydro-1H-cyclopenta[a]phenanthren-3-yl)-3-methylbutanamide]	–	< 20
C[C@]12CCC(NC(=O)[C@H]3CCCN3)C[C@@]1(O)CC[C@@H]1[C@@H]2CC[C@]2(C)[C@@H](c3ccc(=O)oc3)CC[C@]12O (stereo partly drawn) [Compound C31, (2R)-N-((5S,8R,9S,10R,13R,14S,17R)-5,14-dihydroxy-10,13-dimethyl-17-(2-oxo-2H-pyran-5-yl)hexadecahydro-1H-cyclopenta[a]phenanthren-3-yl)pyrrolidine-2-carboxamide]	–	< 20
C[C@]12CC[C@@H](N)C[C@H]1CC[C@@H]1[C@@H]2CC[C@]2(C)[C@@H](c3ccc(=O)oc3)CC[C@]12O [Compound C34, 5-((3R,5R,8R,9S,10S,13R,14S,17R)-3-amino-14-hydroxy-10,13-dimethylhexadecahydro-1H-cyclopenta[a]phenanthren-17-yl)-2H-pyran-2-one]	–	> 1000
C[C@]12CC[C@H](N)C[C@H]1CC[C@@H]1[C@@H]2CC[C@]2(C)[C@@H](c3ccc(=O)oc3)CC[C@]12O [Compound C35, 5-((3S,5R,8R,9S,10S,13R,14S,17R)-3-amino-14-hydroxy-10,13-dimethylhexadecahydro-1H-cyclopenta[a]phenanthren-17-yl)-2H-pyran-2-one]	–	< 20
